{"source": "patent EP1495132B1", "about": "“SYSTEMIC MARKER FOR MONITORING ANTI-INFLAMMATORY AND ANTIOXIDANT ACTIONS OF THERAPEUTIC AGENTS” (priority 2002, dated 2003)", "key": {"Human neutrophils": {"test_system": "Human neutrophils", "experiment": "Neutrophil-dependent initiation of lipid peroxidation of endogenous plasma lipids (PMA-activated neutrophils, LC/ESI/MS/MS)", "assay_type": "cell-based", "details": "50% plasma, 2 h, 37° C, 1 mM NaN3, 300 nM catalase, 100 µM methionine, 100 µM ascorbate, 10 µg/ml SOD", "procedure": "(§1) Neutrophils (1×10^6/ml) isolated from normal and MPO-deficient individuals were incubated at 37° C in HBSS supplemented with DTPA (100 µM, pH 7.0) and fresh human plasma (50% v/v). Cells were activated by addition of phorbol myristate acetate (PMA, 200 nM) and incubated for 2 h (Complete System). The content of 9-H(P)ODE and 9-H(P)ETE formed within endogenous plasma lipids were then determined by LC/ESI/MS/MS. Where indicated, human MPO (30 nM) was added to reaction mixtures. Data represent the mean ±SD of triplicate determinations. Each bar within a cluster for a given condition represents results obtained from independent experiments performed with neutrophil preparations from a distinct donor. PMN(MPO+), neutrophils isolated from normal subjects; PMN(MPO-), neutrophils isolated from MPO-deficient subjects. • Figs. 5(A-B) are graphs showing the characterization of neutrophil-dependent initiation of lipid peroxidation of endogenous plasma lipids. Neutrophils (1×10^6/ml) isolated from normal subjects (PMN) were incubated at 37° C in HBSS supplemented with DTPA (100 µM, pH 7.0) and fresh human plasma (50% v/v). Cells were activated by addition of phorbol myristate acetate (PMA, 200 nM) and then incubated for 2 h (Complete System). The content of 9-H(P)ODE and 9-H(P)ETE formed within endogenous plasma lipids were then determined by LC/ESI/MS/MS. Additions or deletions to the Complete System were as indicated. The final concentrations of additions to the Complete System were 30 nM human MPO, 1 mM NaN3, 300 nM catalase (Cat), 300 nM heat inactivated-catalase (hiCat), 100 µM methionine (Met), 100 µM ascorbate and 10 µg/ml superoxide dismutase (SOD). […] The content of 9-H(P)ODE and 9-H(P)ETE formed within endogenous plasma lipids were then determined by LC/ESI/MS/MS. […] The contents of the indicated oxidized PC species were determined in native LDL and LDL oxidized by the MPO-H2O2-NO2 system (NO2-LDL) using LC/ESI/MS/MS. […]"}, "human MPO": {"molecular_target": "T1, human MPO (Homo sapiens, UniProt P05164)", "T1 construct": "from tissue; host or cells: human leukocytes, for the MPO standard of the ELISA; the lipid peroxidation text only says 'isolated'/'purified' and cites the literature", "T1 sequence (P05164 279-745 limits assumed)": "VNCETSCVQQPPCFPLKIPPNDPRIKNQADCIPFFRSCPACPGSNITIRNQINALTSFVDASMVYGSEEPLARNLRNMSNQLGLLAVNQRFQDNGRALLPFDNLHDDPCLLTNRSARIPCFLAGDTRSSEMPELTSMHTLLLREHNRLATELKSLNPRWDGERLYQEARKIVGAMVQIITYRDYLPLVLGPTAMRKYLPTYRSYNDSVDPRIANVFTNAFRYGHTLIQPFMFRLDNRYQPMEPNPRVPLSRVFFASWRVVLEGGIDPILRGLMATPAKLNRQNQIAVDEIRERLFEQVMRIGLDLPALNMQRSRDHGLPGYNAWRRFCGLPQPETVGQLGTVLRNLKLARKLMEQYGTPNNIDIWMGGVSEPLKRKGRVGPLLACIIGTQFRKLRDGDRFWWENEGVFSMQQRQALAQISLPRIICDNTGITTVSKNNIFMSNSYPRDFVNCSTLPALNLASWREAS", "T1 sequence (P05164 165-273 limits assumed)": "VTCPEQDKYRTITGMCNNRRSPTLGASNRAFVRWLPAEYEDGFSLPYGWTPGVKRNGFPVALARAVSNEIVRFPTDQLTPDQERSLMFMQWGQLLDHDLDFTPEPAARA", "experiment": "MPO-dependent initiation of lipid peroxidation of endogenous plasma lipids (isolated MPO plus glucose/glucose oxidase)", "assay_type": "biochemical", "details": "30 nM MPO, G/GO, 50% plasma, 12 h, 37° C; 1 mM NaN3, 300 nM catalase, 200 nM SOD, 100 µM methionine, 100 µM ascorbate", "procedure": "as §1, with “Neutrophils (1×10^6/ml) isolated from normal subjects (PMN) were incubated at 37° C in HBSS supplemented with DTPA (100 µM, pH 7.0) and fresh human plasma (50% v/v). Cells were activated by addition of phorbol myristate acetate (PMA, 200 nM) and then incubated for 2 h (Complete System).” left out, “LC/ESI/MS/MS.” for “LC/ESI/MS/MS. Additions or deletions to the Complete System were as indicated. The final concentrations of additions to the Complete System were 30 nM human MPO, 1 mM NaN3, 300 nM catalase (Cat), 300 nM heat inactivated-catalase (hiCat), 100 µM methionine (Met), 100 µM ascorbate and 10 µg/ml superoxide dismutase (SOD).”"}, "[1]": {"test_system": "MPO and multiple distinct oxidation products formed by MPO", "experiment": "Example 14: plasma MPO and oxidation products, ARB therapy", "assay_type": "in vivo, human", "details": "16 weeks of losartan 25 mg PO QD, n=16", "description": "Angiotensin receptor blocking agents are a new therapy used for treatment of hypertension. They act upon the same biochemical axis as ACEI. Accordingly, they promote clinical benefits beyond those linked to blood pressure reduction - those related to presumed anti-inflammatory and antioxidant actions. However, no means for objectively monitoring these effects have been available. We hypothesized that monitoring levels of MPO and its oxidation products might serve as a way of quantifying the anti-inflammatory and antioxidant effects of ARBs. […] These studies underscore the potential utility of MPO and its oxidation products for monitoring systemic antioxidant and anti-inflammatory effects of therapeutic interventions."}, "[2]": {"test_system": "oxidation products produced by myeloperoxidase and nitric oxide-derived oxidants", "experiment": "Prospective intervention study: plasma protein-bound tyrosine oxidation products at baseline and after 12 weeks of atorvastatin", "assay_type": "in vivo, human", "procedure": "The population consisted of a consecutive sample of patients recruited from the Preventive Cardiology Clinic at the Cleveland Clinic Foundation from June 2001 until January 2002 who were eligible and consented to participate in the study. Patients 21 years of age and older without clinical evidence of CAD and with low-density lipoprotein cholesterol (LDL-C) levels ≥ 130mg/dL, despite at least 6-8 weeks of therapeutic lifestyle interventions, were eligible to participate in the study. Briefly at initial screening, a detailed medical history was obtained, a thorough physical examination was performed, and a fasting lipoprotein profile was obtained. Patients potentially eligible for the study received counseling on nutritional and exercise interventions. If after 6-8 weeks LDL-C remained ≥130mg/dL, patients were eligible for enrollment in the study. […] Patient with active liver disease or renal insufficiency defined as serum creatine levels of 1.8 mg per deciliter or greater were excluded. […] All patients gave written informed consent, and the Institutional Review Board at the Cleveland Clinic Foundation approved the study protocol.\nBlood samples were collected into serum separator tubes (Case-control study) or EDTA tubes (Intervention study) from overnight fasted patients. Samples were centrifuged at 3500 rpm for 10 minutes, plasma/serum recovered, and aliquots stored at -80°C until analysis. Personnel blinded to clinical data performed all laboratory measurements. Lipoprotein/lipid profiles and high sensitivity C-reactive protein (CRP) measurements were performed using CDC standardized assays.\nProtein-bound nitrotyrosine levels were determined by stable isotope dilution liquid chromatography-electrospray ionization tandem mass spectrometry based methods using an ion trap mass spectrometer (LCQ Deca, ThermoFinigann, San Jose, CA). […] Nitrotyrosine content in samples is expressed as the mole ratio between nitrotyrosine and the precursor amino acid tyrosine. […]"}, "[3]": {"test_system": "MPO-generated markers of protein and lipid oxidation", "experiment": "Example 10: MPO-generated oxidation markers and hs-CRP after 12 weeks of atorvastatin (Figs. 14, 15)", "assay_type": "in vivo, human", "details": "baseline vs 12 weeks of atorvastatin 10 mg PO QHS"}, "[4]": {"test_system": "oxidation products produced by myeloperoxidase and nitric oxide-derived oxidants", "experiment": "Prospective intervention study: plasma protein-bound tyrosine oxidation products at baseline and after 12 weeks of atorvastatin", "assay_type": "in vivo, human", "remark": "listed apart in the source"}, "MPO": {"test_system": "MPO", "experiment": "Example 15: plasma levels of MPO, statin therapy", "assay_type": "in vivo, human", "details": "n=27"}, "[5]": {"test_system": "lipid levels and high-sensitivity CRP", "quoted_text": "Wilcoxon rank-sum test was used to analyze the differences between measurements at baseline and 12 weeks. […] Approximate 95% confidence intervals were found using Fisher's r-to-z transform. Multiple regression analyses were performed to determine factors associated with changes in nitrotyrosine levels.\nWe performed a prospective, open-label study. The study cohort consisted of a consecutive sample of patients (n=35) recruited from the Preventive Cardiology Clinic at the Cleveland Clinic Foundation. Patients 21 years of age and older without clinical evidence of coronary artery disease and with LDL cholesterol (LDL-C) levels 130 mg per deciliter or greater, despite at least 6-8 weeks of therapeutic lifestyle interventions, were eligible to participate in the study. Briefly, at initial screening, a detailed medical history was obtained, a thorough physical examination was performed, and a fasting lipoprotein profile was obtained. Patients potentially eligible for the study received counseling on nutritional and exercise interventions. If after 6-8 weeks LDL-C remained above 130 mg/dL, patients were eligible for enrollment in the study. […] Fasting morning plasma samples were collected prior to initiation of therapy (baseline), and following 12 weeks of therapy. Patients with active liver disease or renal insufficiency defined as a serum creatinine level of 1.8 mg per deciliter or greater were excluded. […] All patients gave written informed consent, and the Institutional Review Board at the Cleveland Clinic Foundation approved the study protocol.\nBlood samples were collected into EDTA tubes from fasting patients. Samples were centrifuged at 3500 rpm for 10 minutes at 4°C, and stored under conditions to minimize artificial oxidation (i.e., with antioxidant cocktail, under inert atmosphere). Briefly, plasma was removed and allocated into tubes containing butylated hydroxytoluene (100µM final) and diethylenetriaminepentaacetic acid (100µM final) overlaid with argon and stored at -80°C until analysis. Standard methods were used to measure lipid levels and high-sensitivity CRP.\nData are presented as mean ± SD, and significance level was set at p < 0.05. Wilcoxon rank-sum test was used to analyze the differences between NO2Tyr, diTyr, and CRP at baseline and 12 weeks, as they were not normally distributed."}, "[6]": {"test_system": "MPO and multiple distinct oxidation products formed by MPO", "experiment": "Example 13: plasma MPO and oxidation products, ACEI therapy", "assay_type": "in vivo, human", "details": "16 weeks of lisinopril 20 mg PO QD, n=9", "quoted_text": "Subjects (n=9) had plasma drawn at baseline, and then 16 weeks following therapy with lisinopril (Zestril, 20 mg PO QD). Plasma levels of MPO, protein-bound nitrotyrosine, chlorotyrosine, dityrosine, and 9-H(P)ETE and F2Isoprostantes were monitored."}, "[7]": {"details": "baseline to 12 weeks, atorvastatin 10 mg per day, n = 35"}, "[8]": {"details": "plasma protein-bound, 12 Weeks of atorvastatin 10 mg orally per day, n = 35, mean ± SD"}, "[9]": {"details": "reduction, baseline to 12 weeks, atorvastatin 10 mg per day, given unsigned"}, "[10]": {"details": "n=35, LDL cholesterol ≥ 130mg/dL"}, "[11]": {"details": "reduction, baseline to 12 weeks, atorvastatin 10 mg per day, given unsigned, not significant"}, "[12]": {"details": "12 Weeks of atorvastatin 10 mg orally per day, n = 35, mean ± SD"}}, "note": "Where “and” joins values, the source holds several entries; their conditions need not be identical. Equal values may be shown once."}
{"compound": "azide", "values": [{"measurement": "neutrophil-dependent peroxidation of endogenous plasma lipids (9-H(P)ODE and 9-H(P)ETE)", "setting": "Human neutrophils", "value": "complete inhibition"}, {"measurement": "MPO-dependent lipid oxidation in plasma (9-H(P)ODE and 9-H(P)ETE)", "setting": "human MPO", "value": "inhibited"}]}
{"compound": "O[C@H](CS)[C@H](O)CS", "note": "(racemic) [dithiothreitol]", "values": [{"measurement": "neutrophil-dependent peroxidation of endogenous plasma lipids (9-H(P)ODE and 9-H(P)ETE)", "setting": "Human neutrophils", "value": "failed to attenuate"}]}
{"compound": "CCCCc1nc(Cl)c(CO)n1Cc1ccc(-c2ccccc2-c2nn[nH]n2)cc1", "note": "[losartan]", "values": [{"measurement": "Nitrotyrosine", "setting": "[1]; plasma protein-bound", "value": 8.1, "unit": "umol/mol"}, {"measurement": "9-H(P)ETE", "setting": "[1]; plasma", "value": 0.27, "unit": "mmol/mol"}, {"measurement": "Chlorotyrosine", "setting": "[1]; plasma", "value": 14.3, "unit": "umol/mol"}, {"measurement": "Dityrosine", "setting": "[1]; plasma", "value": 28.5, "unit": "umol/mol"}, {"measurement": "F2Isoprostane", "setting": "[1]; plasma", "value": 0.68, "unit": "mmol/mol"}, {"measurement": "MPO", "setting": "[1]; plasma", "value": 9.9, "unit": "ng/mL"}]}
{"compound": "CSCC[C@H](N)C(=O)O", "note": "[methionine]", "values": [{"measurement": "neutrophil-dependent peroxidation of endogenous plasma lipids (9-H(P)ODE and 9-H(P)ETE)", "setting": "Human neutrophils", "value": "failed to attenuate"}, {"measurement": "MPO-dependent lipid oxidation in plasma (9-H(P)ODE and 9-H(P)ETE)", "setting": "human MPO", "value": "not affected"}]}
{"compound": "CC(C)c1c(C(=O)Nc2ccccc2)c(-c2ccccc2)c(-c2ccc(F)cc2)n1CC[C@@H](O)C[C@@H](O)CC(=O)O", "note": "[Atorvastatin, atorvastatin]", "values": [{"measurement": "Nitrotyrosine, absolute change", "setting": "[2]; [7]", "value": -4, "unit": "µmol/mol tyrosine"}, {"measurement": "Nitrotyrosine", "setting": "[2]; [8]", "value": "11 ± 5", "unit": "µmol/mol tyrosine"}, {"measurement": "Nitrotyrosine, % change", "setting": "[2]; [9]", "value": 25, "unit": "%"}, {"measurement": "reduction in dityrosine", "setting": "[3]; [10]", "value": 30, "unit": "%"}, {"measurement": "reduction in nitrotyrosine", "setting": "[3]; [10]", "value": 24, "unit": "%"}, {"measurement": "decrease in hs-CRP", "setting": "[3]; n=35, failed to reach significance", "value": 11, "unit": "%"}, {"measurement": "Chlorotyrosine, absolute change", "setting": "[4]; [7]", "value": -6, "unit": "µmol/mol tyrosine"}, {"measurement": "Dityrosine, absolute change", "setting": "[4]; [7]", "value": -11, "unit": "µmol/mol tyrosine"}, {"measurement": "ortho-tyrosine, absolute change", "setting": "[4]; [7]", "value": -8, "unit": "µmol/mol tyrosine"}, {"measurement": "Chlorotyrosine", "setting": "[4]; [8]", "value": "13 ± 4", "unit": "µmol/mol tyrosine"}, {"measurement": "Dityrosine", "setting": "[4]; [8]", "value": "23 ± 8", "unit": "µmol/mol tyrosine"}, {"measurement": "ortho-tyrosine", "setting": "[4]; [8]", "value": "81 ± 40", "unit": "µmol/mol tyrosine"}, {"measurement": "Chlorotyrosine, % change", "setting": "[4]; [9]", "value": 30, "unit": "%"}, {"measurement": "Dityrosine, % change", "setting": "[4]; [9]", "value": 32, "unit": "%"}, {"measurement": "ortho-tyrosine, % change", "setting": "[4]; [11]", "value": 9, "unit": "%"}, {"measurement": "MPO", "setting": "MPO; plasma, 16 weeks of Atorvastatin 10 mg PO QD", "value": "17.3 ± 4.8", "unit": "ng/mL"}, {"measurement": "MPO, % change", "setting": "MPO; reduction, baseline to 16 weeks of Atorvastatin 10 mg PO QD, given unsigned", "value": 12.2, "unit": "%"}, {"measurement": "Apolipoprotein B-100", "setting": "[5]; [12]", "value": "96 ± 21", "unit": "mg/dL"}, {"measurement": "C-reactive protein", "setting": "[5]; [12]", "value": "0.23 ± 0.33 mg/dL and 0.23 mg/dL"}, {"measurement": "Total cholesterol level", "setting": "[5]; [12]", "value": "190 ± 28", "unit": "mg/dL"}, {"measurement": "Apolipoprotein B-100, absolute change", "setting": "[5]; [7]", "value": -39, "unit": "mg/dL"}, {"measurement": "C-reactive protein, absolute change", "setting": "[5]; [7]", "value": -0.2, "unit": "mg/dL"}, {"measurement": "Total cholesterol, absolute change", "setting": "[5]; [7]", "value": -63, "unit": "mg/dL"}, {"measurement": "Triglycerides, absolute change", "setting": "[5]; [7]", "value": -14, "unit": "mg/dL"}, {"measurement": "Triglycerides", "setting": "[5]; fasting, 12 Weeks of atorvastatin 10 mg orally per day, n = 35, mean ± SD", "value": "132 ± 81", "unit": "mg/dL"}, {"measurement": "Apolipoprotein B-100, % change", "setting": "[5]; [9]", "value": 29, "unit": "%"}, {"measurement": "Total cholesterol, % change", "setting": "[5]; [9]", "value": 25, "unit": "%"}, {"measurement": "C-reactive protein, % change", "setting": "[5]; [11]", "value": 11, "unit": "%"}, {"measurement": "Triglycerides, % change", "setting": "[5]; [11]", "value": 10, "unit": "%"}]}
{"compound": "NCCCC[C@H](N[C@@H](CCc1ccccc1)C(=O)O)C(=O)N1CCC[C@H]1C(=O)O", "note": "[lisinopril]", "values": [{"measurement": "Nitrotyrosine", "setting": "[6]; plasma protein-bound", "value": 10.3, "unit": "µmol/mol"}, {"measurement": "9-H(P)ETE", "setting": "[6]; plasma", "value": 0.21, "unit": "mmol/mol"}, {"measurement": "Chlorotyrosine", "setting": "[6]; plasma", "value": 15.0, "unit": "µmol/mol"}, {"measurement": "Dityrosine", "setting": "[6]; plasma", "value": 24.1, "unit": "µmol/mol"}, {"measurement": "F2Isoprostane", "setting": "[6]; plasma", "value": 0.72, "unit": "mmol/mol"}, {"measurement": "MPO", "setting": "[6]; plasma", "value": 8.8, "unit": "ng/mL"}]}
